US20160304552A1, “MODIFIED NUCLEIC ACID MOLECULES AND USES THEREOF” (MODERNA THERAPEUTICS, INC., priority 2013, published 2016)

Key:
human PBMC = assay: PBMC cytokine assay, interferon-alpha production (IFN-alpha multi-subtype ELISA); assay type: cell-based
Method: 50 mL of human blood from three donors was received from Research Blood Components (Brighton, Mass.) in sodium heparin tubes. […] The tubes were centrifuged at 2000 rpm for 30 minutes with low acceleration and braking (Thermo, Waltham, Mass., 75004506). The tubes were removed and the buffy coat PBMC layers were gently transferred to a fresh 50 mL conical and washed with DPBS. The tubes were centrifuged at 1450 rpm for 10 minutes. The supernatant was aspirated and the PBMC pellets were resuspended and washed in 50 mL of DPBS. The tubes were centrifuged at 1450 rpm for 10 minutes. […] The cell suspensions were adjusted to a concentration of 3.0×10^6 cells/mL live cells. […] Within 30 minutes, transfection mixtures were added to each well at a volume of 50 μL per well. […] The transfection mixtures were then transferred to each of the human PBMC plates at 50 μL per well (6 wells per mRNA sample). The plates were then incubated at 37° C. […] In order to harvest the supernatant, plates were centrifuged at 1450 rpm for 5 min in a swinging plate rotor. The supernatant of 6 wells transfected with the same mRNA was carefully harvested and pooled in a single well of a fresh 96-well plate. Supernatants were either frozen or used fresh until ELISA analysis was done. The ability of unmodified and modified mRNA to trigger innate immune recognition as measured by interferon-alpha production.

[1] = tested on: Rabbit Reticulocyte Lysate; assay: In vitro translation screen, firefly Luciferase modRNA (luciferase assay, relative light units); assay type: biochemical; details: Table 20; 250 ng modRNA, 45 min, 30° C.
Method: (§1) The in vitro translation assay was done with the Rabbit Reticulocyte Lysate (nuclease-treated) kit (Promega, Madison, Wis.; Cat. #L4960) according to the manufacturer's instructions. The reaction buffer was a mixture of equal amounts of the amino acid stock solutions devoid of Leucine or Methionine provided in the kit.
(§2) The modRNAs of firefly Luciferase, human GCSF and human EPO, harboring chemical modifications on either the bases or the ribose units, were diluted in sterile nuclease-free water to a final concentration of 250 ng in 2.5 ul (Stock 100 ng/μl). The modRNA (250 ng) was added to the mixture of freshly prepared Rabbit Reticulocyte Lysate and reaction buffer.
After 45 min incubation, the reaction was stopped by placing the plate on ice. Aliquots of the in vitro translation reaction containing luciferase modRNA were transferred to white opaque polystyrene 96-well plates (Corning, Manassas, Va.; Cat. # CLS3912) and combined with 100 ul complete luciferase assay solution (Promega, Madison, Wis.). The volumes of the in vitro translation reactions were adjusted or diluted until no more than 2 million relative light units per well were detected for the strongest signal producing samples. […] The plate reader was a BioTek Synergy H1 (BioTek, Winooski, Vt.).

HeLa cells [2] = assay: Transfection in HeLa cells, human GCSF modRNA (GCSF ELISA of supernatant); assay type: cell-based; details: Table 22, 250 ng modRNA, 18 h to 22 h
Method: (§3) The day before transfection, 20.000 HeLa cells (ATCC no. CCL-2; Manassas, Va.) were harvested by treatment with Trypsin-EDTA solution (LifeTechnologies, Grand Island, N.Y.) and seeded in a total volume of 100 ul EMEM medium (supplemented with 10% FCS and 1× Glutamax) per well in a 96-well cell culture plate (Corning, Manassas, Va.). The cells were grown at 37° C. in 5% CO2 atmosphere overnight. Next day, 83 ng of Luciferase modRNA or 250 ng of human GCSF modRNA, harboring chemical modifications on the bases or the ribose units, were diluted in 10 ul final volume of OPTI-MEM (LifeTechnologies, Grand Island, N.Y.). Lipofectamine 2000 (LifeTechnologies, Grand Island, N.Y.) was used as transfection reagent and 0.2 μl were diluted in 10 ul final volume of OPTI-MEM. After 5 min incubation at room temperature, both solutions were combined and incubated additional 15 min at room temperature. Then the 20 μl were added to the 100 ul cell culture medium containing the HeLa cells. The plates were then incubated as described before.
(§4) After 18 h to 22 h incubation, cell culture supernatants of cells expressing human GCSF or human EPO were collected and centrifuged at 10.000 rcf for 2 min. The cleared supernatants were transferred and analyzed with a human GCSF-specific or EPO ELISA kit (both from R&D Systems, Minneapolis, Minn.; Cat. #s SCS50, DEP00, respectively) according to the manufacturer instructions. All samples were diluted until the determined values were within the linear range of the human GCSF or EPO ELISA standard curve.

T7 RNA polymerase = T7 RNA polymerase (Escherichia phage T7, UniProt P00573); assay: In vitro transcription yields of modified mRNA; assay type: biochemical; details: for EPO In Vitro Transcription yield: EPO mRNA made with the modified NTP(s); for GCSF In Vitro Transcription yield: GCSF mRNA made with the modified NTP(s); for Luc In Vitro Transcription yield: Luciferase mRNA made with the modified NTP(s)
T7 RNA polymerase, sequence (P00573 whole entry): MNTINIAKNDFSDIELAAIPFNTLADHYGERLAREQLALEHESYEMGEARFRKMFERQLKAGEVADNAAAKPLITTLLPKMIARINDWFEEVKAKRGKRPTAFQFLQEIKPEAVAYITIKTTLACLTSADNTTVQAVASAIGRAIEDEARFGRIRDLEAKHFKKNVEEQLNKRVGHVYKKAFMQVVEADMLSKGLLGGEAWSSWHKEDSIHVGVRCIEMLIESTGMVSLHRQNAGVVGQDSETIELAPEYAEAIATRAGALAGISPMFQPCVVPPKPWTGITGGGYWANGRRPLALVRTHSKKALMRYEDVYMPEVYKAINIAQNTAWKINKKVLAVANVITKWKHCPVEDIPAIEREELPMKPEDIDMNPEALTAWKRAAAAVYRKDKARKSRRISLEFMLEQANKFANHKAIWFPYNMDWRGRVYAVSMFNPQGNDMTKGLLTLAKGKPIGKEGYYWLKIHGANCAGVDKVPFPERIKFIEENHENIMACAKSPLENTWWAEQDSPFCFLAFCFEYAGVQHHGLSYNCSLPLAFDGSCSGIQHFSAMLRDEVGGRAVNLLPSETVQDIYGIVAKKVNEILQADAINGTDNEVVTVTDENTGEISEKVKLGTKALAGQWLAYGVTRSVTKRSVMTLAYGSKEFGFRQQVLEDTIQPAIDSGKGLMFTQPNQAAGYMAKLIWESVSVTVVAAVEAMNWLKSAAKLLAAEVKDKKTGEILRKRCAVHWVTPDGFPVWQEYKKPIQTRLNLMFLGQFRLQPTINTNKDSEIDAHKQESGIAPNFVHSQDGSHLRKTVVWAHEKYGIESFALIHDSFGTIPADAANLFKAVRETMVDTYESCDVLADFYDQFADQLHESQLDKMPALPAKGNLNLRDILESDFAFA
Method: The in vitro transcription reaction generates mRNA containing modified nucleotides or modified RNA. The input nucleotide triphosphate (NTP) mix is made in-house using natural and unnatural NTPs.
A typical in vitro transcription reaction includes the following:
Incubation at 37° C. for 3 hr-5 hrs.
The crude IVT mix may be stored at 4° C. overnight for cleanup the next day. 1 U of RNase-free DNase is then used to digest the original template. After 15 minutes of incubation at 37° C., the mRNA is purified using Ambion's […]™ Kit (Austin, Tex.) following the manufacturer's instructions. This kit can purify up to 500 μg of RNA. Following the cleanup, the RNA is quantified using the NanoDrop and analyzed by agarose gel electrophoresis to confirm the RNA is the proper size and that no degradation of the RNA has occurred.
Modified mRNAs in TE buffer (1 μl) are used for Nanodrop UV absorbance readings to quantitate the yield of each modified mRNA from an in vitro transcription reaction (UV absorbance traces are not shown).

HeLa cells [3] = assay: Transfection in HeLa cells, human EPO modRNA (EPO ELISA of supernatant); assay type: cell-based; details: Table 22, 18 h to 22 h
Method: as §3, §4

[4] = tested on: Rabbit Reticulocyte Lysate; assay: In vitro translation screen, human GCSF modRNA (GCSF ELISA); assay type: biochemical; details: Table 20; 250 ng modRNA, 45 min, 30° C.
Method: as §1, §2
(§5) Aliquots of the in vitro translation reaction containing human GCSF modRNA or human EPO mRNA were transferred and analyzed with a human GCSF-specific or EPO ELISA kit (both from R&D Systems, Minneapolis, Minn.; Cat. #s SCS50, DEP00 respectively) according to the manufacturer instructions. All samples were diluted until the determined values were within the linear range of the human GCSF or EPO ELISA standard curve.

[5] = tested on: Rabbit Reticulocyte Lysate; assay: In vitro translation screen, human EPO modRNA (EPO ELISA); assay type: biochemical; details: Table 20; 250 ng modRNA, 45 min, 30° C.
Method: as §1, §2, §5

HeLa cells [6] = assay: Transfection in HeLa cells, Luciferase modRNA (luciferase assay, relative light units); assay type: cell-based, human; details: Table 22, 83 ng modRNA, Lipofectamine 2000, 18 h to 22 h
Method: as §3
After 18 h to 22 h incubation, cells expressing luciferase were lysed with 100 μl Passive Lysis Buffer (Promega, Madison, Wis.) according to manufacturer instructions. Aliquots of the lysates were transferred to white opaque polystyrene 96-well plates (Corning, Manassas, Va.) and combined with 100 ul complete luciferase assay solution (Promega, Madison, Wis.). The lysate volumes were adjusted or diluted until no more than 2 mio relative light units per well were detected for the strongest signal producing samples. […] The plate reader was a BioTek Synergy H1 (BioTek, Winooski, Vt.).

Structure (SMILES)	interferon-alpha concentration in PBMC supernatant (human PBMC; Luc mRNA, 1st value in cell) [pg/mL]	interferon-alpha concentration in PBMC supernatant (human PBMC; Luc mRNA, 2nd value in cell) [pg/mL]	interferon-alpha concentration in PBMC supernatant (human PBMC; Luc mRNA, 3rd value in cell) [pg/mL]	interferon-alpha concentration in PBMC supernatant (human PBMC; hEPO mRNA, 1st value in cell) [pg/mL]	interferon-alpha concentration in PBMC supernatant (human PBMC; hEPO mRNA, 2nd value in cell) [pg/mL]	interferon-alpha concentration in PBMC supernatant (human PBMC; hEPO mRNA, 3rd value in cell) [pg/mL]	interferon-alpha concentration in PBMC supernatant (human PBMC; hGCSF mRNA, 1st value in cell) [pg/mL]	interferon-alpha concentration in PBMC supernatant (human PBMC; hGCSF mRNA, 2nd value in cell) [pg/mL]	interferon-alpha concentration in PBMC supernatant (human PBMC; hGCSF mRNA, 3rd value in cell) [pg/mL]	Luc Expression (RLUs) [1] [RLUs]	GCSF Expression (HeLa cells [2]) [pg/mL]	EPO In Vitro Transcription yield (T7 RNA polymerase) [mg]	GCSF In Vitro Transcription yield (T7 RNA polymerase) [mg]	Luc In Vitro Transcription yield (T7 RNA polymerase) [mg]	Epo Expression (HeLa cells [3]) [pg/mL]	GCSF Expression [4] [pg/mL]	Epo Expression [5] [pg/mL]	Luc Expression (RLUs) (HeLa cells [6])	Luc (3 Donor samples) (human PBMC; Luc mRNA, 1st value in cell) [pg/mL]	Luc (3 Donor samples) (human PBMC; Luc mRNA, 2nd value in cell) [pg/mL]	further results
Nc1nc(=O)n([C@@H]2O[C@H](COP(=O)(O)OP(=O)(O)OP(=O)(O)O)C(O)C2O)cc1CO (stereo in doubt) [00901014005 (350), 5-Hydroxymethyl-CTP]	7130	3680	8990	4960	3100	2412.5	6575	5800	8180	154000	1151000	0.7778	0.6391	0.4073	440300	26600	9425	22160	–	–	–
O=c1[nH]c(=S)[nH]cc1[C@@H]1O[C@H](COP(=O)(O)OP(=O)(O)OP(=O)(O)O)C(O)C1O (stereo in doubt) [00901015006 (193), 2-Thio-pseudo-UTP]	530	1180	1400	-210	675	362.5	358.33	166.66	490	2198	239300	1.081	0.5207	0.6123	380600	5988	12310	1999	–	–	–
O=c1[nH]cc([C@@H]2O[C@H](COP(O)(=S)OP(=O)(O)OP(=O)(O)O)C(O)C2O)c(=O)[nH]1 (stereo in doubt) [00902015001 (194), PseudoU-alpha-thio-TP]	–	–	–	–	–	–	–	–	–	5221	320000	0.8632	0.5522	0.6479	302800	7763	2669	2015	20	170	Luc (3 Donor samples) (human PBMC; Luc mRNA, 3rd value in cell): -90 pg/mL; hEPO (3 Donor samples) (human PBMC; hEPO mRNA, 1st value in cell): -190 pg/mL; hEPO (3 Donor samples) (human PBMC; hEPO mRNA, 2nd value in cell): 75 pg/mL; hEPO (3 Donor samples) (human PBMC; hEPO mRNA, 3rd value in cell): 400 pg/mL; hGCSF (3 Donor samples) (human PBMC; hGCSF mRNA, 1st value in cell): 50 pg/mL; hGCSF (3 Donor samples) (human PBMC; hGCSF mRNA, 2nd value in cell): 508.33 pg/mL; hGCSF (3 Donor samples) (human PBMC; hGCSF mRNA, 3rd value in cell): 640 pg/mL
Cn1cc([C@@H]2O[C@H](COP(O)(=S)OP(=O)(O)OP(=O)(O)O)C(O)C2O)c(=O)[nH]c1=O (stereo in doubt) [00902015002 (195), 1-Methyl-pseudo-U-alpha-thio-TP]	–	–	–	–	–	–	–	–	–	1201	372100	0.7679	0.6582	0.6011	348600	4244	1694	4900	180	500	Luc (3 Donor samples) (human PBMC; Luc mRNA, 3rd value in cell): 180 pg/mL; hEPO (3 Donor samples) (human PBMC; hEPO mRNA, 1st value in cell): -290 pg/mL; hEPO (3 Donor samples) (human PBMC; hEPO mRNA, 2nd value in cell): 512.5 pg/mL; hEPO (3 Donor samples) (human PBMC; hEPO mRNA, 3rd value in cell): 475 pg/mL; hGCSF (3 Donor samples) (human PBMC; hGCSF mRNA, 1st value in cell): 425 pg/mL; hGCSF (3 Donor samples) (human PBMC; hGCSF mRNA, 2nd value in cell): 916.66 pg/mL; hGCSF (3 Donor samples) (human PBMC; hGCSF mRNA, 3rd value in cell): 1250 pg/mL
Nc1ccn([C@@H]2O[C@H](COP(O)(=S)OP(=O)(O)OP(=O)(O)O)C(O)C2O)c(=O)n1 (stereo in doubt) [Compound 00902014001, Alpha-thio-CTP]	–	–	–	–	–	–	–	–	–	142900	285000.00	0.2669	0.2650	0.3352	195400	26930	17000	1845	–	–	–
